In brackets after ≈: the same amount, converted by molar mass. Several values for one entry are separate records, joined by “and”; a condition that tells them apart may be missing. Identical values can stand only once. Activity calls are given as the source filed them. No cut-off for these calls is given here.
Tests used:
Staphylococcus aureus [1] = assay: Antimicrobial activity against Staphylococcus aureus NCIM 2178 assessed as zone of inhibition by well diffusion method; assay type: functional
Staphylococcus aureus [2] = assay: Antimicrobial activity against Staphylococcus aureus NCIM 2178 assessed as absence of growth by well diffusion method; assay type: functional
[3] = Cytotoxicity against mouse 3T3-L1 cells assessed as cell viability at 25 ug/ml measured after 24 hrs by MTT assay relative to control; assay type: toxicity, cell-based; conditions: at 25 µg/mL, read-out: Activity
Proteus mirabilis [4] = assay: Antimicrobial activity against Proteus mirabilis NCIM 2388 assessed as zone of inhibition by well diffusion method; assay type: functional
Candida albicans = assay: Antifungal activity against Candida albicans NCIM 3100 assessed as zone of inhibition by well diffusion method; assay type: functional
[5] = Cytotoxicity against mouse 3T3-L1 cells assessed as cell viability at 12.5 ug/ml measured after 24 hrs by MTT assay relative to control; assay type: toxicity, cell-based; conditions: at 12.5 µg/mL, read-out: Activity
Bacillus subtilis = assay: Antimicrobial activity against Bacillus subtilis NCIM 2063 assessed as zone of inhibition by well diffusion method; assay type: functional
Aspergillus niger [6] = assay: Antifungal activity against Aspergillus niger ATCC 504 assessed as absence of growth by well diffusion method; assay type: functional
Aspergillus niger [7] = assay: Antifungal activity against Aspergillus niger ATCC 504 assessed as zone of inhibition by well diffusion method; assay type: functional
Proteus mirabilis [8] = assay: Antimicrobial activity against Proteus mirabilis NCIM 2388 assessed as absence of growth by well diffusion method; assay type: functional
[9] = system: Mycobacterium tuberculosis; assay: Antitubercular activity Mycobacterium tuberculosis H37Rv strain ATCC No- 27294 assessed as prevention of color change from blue to pink using Almar Blue measured after 24 hrs by MABA assay; assay type: functional
Escherichia coli = assay: Antimicrobial activity against Escherichia coli NCIM 2574 assessed as zone of inhibition by well diffusion method; assay type: functional

SMILES	inhibition zone (IZ) (Staphylococcus aureus [1])	MIC (Staphylococcus aureus [2])	viability at 24 h, 25 ug/ml [3]	inhibition zone (IZ) (Proteus mirabilis [4])	inhibition zone (IZ) (Candida albicans)	viability at 24 h, 12.5 ug/ml [5]	inhibition zone (IZ) (Bacillus subtilis)	MIC (Aspergillus niger [6])	inhibition zone (IZ) (Aspergillus niger [7])	MIC (Proteus mirabilis [8])	MIC [9]	inhibition zone (IZ) (Escherichia coli)
c1ccc(Nc2nc(-c3cn(-c4ccccc4)nc3-c3ccccc3)cs2)cc1	16 mm	62.5 µg/mL and 1590 µM	90.5%	15 mm	11.2 mm	97.5%	11.2 mm	15.6 µg/mL and 39.6 µM	18.8 mm	125 µg/mL (≈ 317 µM)	1.6 µg/mL and 4.06 µM	inactive
Clc1ccc(Nc2nc(-c3cn(-c4ccccc4)nc3-c3ccccc3)cs2)cc1	15.8 mm	62.5 µg/mL and 146 µM		14.8 mm	11.2 mm		12.2 mm	15.6 µg/mL and 36.5 µM	19.2 mm	125 µg/mL (≈ 291 µM)	25 µg/mL and 58.4 µM	inactive
Clc1ccc(-c2nn(-c3ccccc3)cc2-c2csc(Nc3ccccc3)n2)cc1	14 mm	125 µg/mL (≈ 291 µM)		15.2 mm	11 mm		12 mm	31.2 µg/mL and 72.8 µM	17.4 mm	125 µg/mL (≈ 291 µM)	25 µg/mL and 58.4 µM	inactive
NNC(=O)c1ccncc1 [ISONIAZID]											1.6 µg/mL and 11.7 µM	
Fc1ccc(-n2cc(-c3csc(Nc4ccccc4)n3)c(-c3ccc(Cl)cc3)n2)cc1	15 mm	125 µg/mL (≈ 280 µM)	62.6%	14.2 mm	11 mm	69.2%	13.4 mm	15.6 µg/mL and 35 µM	18.2 mm	125 µg/mL (≈ 280 µM)	1.6 µg/mL and 3.58 µM	inactive
Cc1ccc(Nc2nc(-c3cn(-c4ccccc4)nc3-c3ccccc3)cs2)cc1	15 mm	125 µg/mL (≈ 306 µM)		15 mm	10.4 mm		12 mm	15.6 µg/mL and 38.3 µM	18.4 mm	125 µg/mL (≈ 306 µM)	50 µg/mL and 122 µM	inactive
Fc1ccc(-n2cc(-c3csc(Nc4ccc(Cl)cc4)n3)c(-c3ccccc3)n2)cc1	16 mm	62.5 µg/mL and 140 µM	46%	15 mm	10.8 mm	102%	13 mm	15.6 µg/mL and 35 µM	18.8 mm	125 µg/mL (≈ 280 µM)	3.12 µg/mL and 7.01 µM	13 mm
Cc1ccc(-c2nn(-c3ccccc3)cc2-c2csc(Nc3ccc(Cl)cc3)n2)cc1	16 mm	62.5 µg/mL and 141 µM	61.8%	13.8 mm	10 mm	67.5%	13.8 mm	15.6 µg/mL and 35.3 µM	20 mm		0.8 µg/mL and 1.8 µM	inactive
Cc1ccc(Nc2nc(-c3cn(-c4ccccc4)nc3-c3ccc(C)cc3)cs2)cc1	13 mm			15 mm	11.4 mm	70.1%	13.2 mm	15.6 µg/mL and 37 µM	18 mm	125 µg/mL (≈ 296 µM)	1.6 µg/mL and 3.79 µM	inactive
COc1ccc(Nc2nc(-c3cn(-c4ccccc4)nc3-c3ccc(C)cc3)cs2)cc1	14 mm	125 µg/mL (≈ 285 µM)	90.5%	15 mm	10.6 mm	97.5%	12.4 mm	15.6 µg/mL and 35.7 µM	18.6 mm	125 µg/mL (≈ 285 µM)	50 µg/mL and 114 µM	inactive
Fc1ccc(-n2cc(-c3csc(Nc4ccccc4)n3)c(-c3ccccc3)n2)cc1	15 mm	125 µg/mL (≈ 303 µM)	94.8%	13.8 mm	10 mm	99.5%	12 mm	15.6 µg/mL and 37.9 µM	18.6 mm		12.5 µg/mL and 30.3 µM	inactive
